Measurements as given in the supplement of paper PMC11061612.

Tests used:
[1] = system: 647-V (Bladder Carcinoma); assay: Bliss excess, mean over the matrix (fraction); higher = more synergy
In short: (§1)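 Cell lines grown in DMEM/F12 or RPMI with 10% FBS were plated in 1536-well plates and held 24 hours at 37°C, 5% CO2 before 72 hours of exposure to two-drug dose matrices, with DMSO typically at 0.2%. CellTiter-Glo 2.0 luminescence gave viability, which was converted to inhibition. Vehicle wells were set to 0 and blank wells to 1. Combination Emax is the second-highest inhibition in the matrix, and Bliss excess is the observed combination effect minus the expected EA + EB − EA·EB, where EA and EB are the single-agent effects.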

[2] = system: A172 (Glioblastoma); assay: as above
In short: as §1

[3] = system: EFM-192A (Breast Carcinoma); assay: as above
In short: as §1

[4] = system: ETK-1 (Biliary Tract Carcinoma); assay: as above
In short: as §1

[5] = system: GDM-1 (Acute Myeloid Leukemia); assay: as above
In short: as §1

[6] = system: HCC-827 (Lung Adenocarcinoma); assay: as above
In short: as §1

[7] = system: HCC1143 (Breast Carcinoma); assay: as above
In short: as §1

[8] = system: HOP-92 (Non-Small Cell Lung Carcinoma); assay: as above
In short: as §1

[9] = system: HuO9 (Osteosarcoma); assay: as above
In short: as §1

[10] = system: JHH-6 (Hepatocellular Carcinoma); assay: as above
In short: as §1

[11] = system: KG-1 (Acute Myeloid Leukemia); assay: as above
In short: as §1

[12] = system: MCF7 (Breast Carcinoma); assay: as above
In short: as §1

[13] = system: MES-SA (Other Solid Carcinomas); assay: as above
In short: as §1

[14] = system: NCI-H1688 (Small Cell Lung Carcinoma); assay: as above
In short: as §1

[15] = system: PA-TU-8902 (Pancreatic Carcinoma); assay: as above
In short: as §1

[16] = system: RCC10RGB (Kidney Carcinoma); assay: as above
In short: as §1

[17] = system: SKN-3 (Head and Neck Carcinoma); assay: as above
In short: as §1

[18] = system: SNU-61 (Colorectal Carcinoma); assay: as above
In short: as §1

[19] = system: TYK-nu (Ovarian Carcinoma); assay: as above
In short: as §1

[20] = system: U-118-MG (Low Grade Glioma); assay: as above
In short: as §1

[21] = system: 647-V (Bladder Carcinoma); assay: combination Emax (second highest fraction inhibited in the dose matrix, 72 h); higher = more inhibition; extreme values may be limits of the assay
In short: as §1

[22] = system: A172 (Glioblastoma); assay: as above
In short: as §1

[23] = system: EFM-192A (Breast Carcinoma); assay: as above
In short: as §1

[24] = system: ETK-1 (Biliary Tract Carcinoma); assay: as above
In short: as §1

[25] = system: GDM-1 (Acute Myeloid Leukemia); assay: as above
In short: as §1

[26] = system: HCC-827 (Lung Adenocarcinoma); assay: as above
In short: as §1

[27] = system: HCC1143 (Breast Carcinoma); assay: as above
In short: as §1

[28] = system: HOP-92 (Non-Small Cell Lung Carcinoma); assay: as above
In short: as §1

[29] = system: HuO9 (Osteosarcoma); assay: as above
In short: as §1

[30] = system: JHH-6 (Hepatocellular Carcinoma); assay: as above
In short: as §1

[31] = system: KG-1 (Acute Myeloid Leukemia); assay: as above
In short: as §1

[32] = system: MCF7 (Breast Carcinoma); assay: as above
In short: as §1

[33] = system: MES-SA (Other Solid Carcinomas); assay: as above
In short: as §1

[34] = system: NCI-H1688 (Small Cell Lung Carcinoma); assay: as above
In short: as §1

[35] = system: PA-TU-8902 (Pancreatic Carcinoma); assay: as above
In short: as §1

[36] = system: RCC10RGB (Kidney Carcinoma); assay: as above
In short: as §1

[37] = system: SKN-3 (Head and Neck Carcinoma); assay: as above
In short: as §1

[38] = system: SNU-61 (Colorectal Carcinoma); assay: as above
In short: as §1

[39] = system: TYK-nu (Ovarian Carcinoma); assay: as above
In short: as §1

[40] = system: U-118-MG (Low Grade Glioma); assay: as above
In short: as §1
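Throughout, for Bliss excess, mean over the matrix: after 72 h of two-drug dosing.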

SMILES	Bliss excess [1]	Bliss excess [2]	Bliss excess [3]	Bliss excess [4]	Bliss excess [5]	Bliss excess [6]	Bliss excess [7]	Bliss excess [8]	Bliss excess [9]	Bliss excess [10]	Bliss excess [11]	Bliss excess [12]	Bliss excess [13]	Bliss excess [14]	Bliss excess [15]	Bliss excess [16]	Bliss excess [17]	Bliss excess [18]	Bliss excess [19]	Bliss excess [20]	combination Emax [21]	combination Emax [22]	combination Emax [23]	combination Emax [24]	combination Emax [25]	combination Emax [26]	combination Emax [27]	combination Emax [28]	combination Emax [29]	combination Emax [30]	combination Emax [31]	combination Emax [32]	combination Emax [33]	combination Emax [34]	combination Emax [35]	combination Emax [36]	combination Emax [37]	combination Emax [38]	combination Emax [39]	combination Emax [40]
CC(=O)c1c(C)c2cnc(Nc3ccc(N4CCNCC4)cn3)nc2n(C2CCCC2)c1=O [Palbociclib] + CN(CC[C@H](CSC1=CC=CC=C1)NC2=C(C=C(C=C2)S(=O)(=O)NC(=O)C3=CC=C(C=C3)N4CCC(CC4)[C@H](C5=CC=CC=C5C6=CC=C(C=C6)Cl)O)S(=O)(=O)C(F)(F)F)CCO [AZD4320] (first compound max 10 µM, 7x7, partner max 1 µM)	-0.0393	-0.115	-0.041	-0.0826	-0.0087	-0.0307	-0.0178	-0.0491	0.0272	-0.0496	0.0673	-0.0486	-0.0374	-0.0438	-0.085	-0.0344	-0.058	-0.0753	-0.0257	-0.0302	0.211	0.647	0.165	0.292	1	0.288	0.332	0.891	0.841	0.381	0.984	0.45	0.445	0.657	0.323	0.667	0.277	0.136	0.37	0.466
C[C@@H](c1ccc2nccn2c1)n1nnc2ncc(-c3cnn(C)c3)nc21 [Savolitinib] + CN(CC[C@H](CSC1=CC=CC=C1)NC2=C(C=C(C=C2)S(=O)(=O)NC(=O)C3=CC=C(C=C3)N4CCC(CC4)[C@H](C5=CC=CC=C5C6=CC=C(C=C6)Cl)O)S(=O)(=O)C(F)(F)F)CCO [AZD4320] (first compound max 1 µM, 7x7, partner max 1 µM)	-0.0378	-0.0551	0.0065	-0.0216	-0.0256	-0.0001	0.0021	-0.002	-0.0704	-0.0639	-0.0251	-0.0156	-0.0197	0.0359	-0.0909	-0.048	-0.0338	-0.0357	-0.03	-0.0222	0.15	0.112	0.258	0.181	1	0.236	0.268	0.888	0.745	0.0904	0.873	0.162	0.152	0.538	0.26	0.33	0.187	0.183	0.283	0.402
COc1nnc2ccc(N3CCC(c4ccc(OCCN5CCN(C)C(=O)[C@H]5C)cc4)CC3)nn12 [AZD5153] + CN(CC[C@H](CSC1=CC=CC=C1)NC2=C(C=C(C=C2)S(=O)(=O)NC(=O)C3=CC=C(C=C3)N4CCC(CC4)[C@H](C5=CC=CC=C5C6=CC=C(C=C6)Cl)O)S(=O)(=O)C(F)(F)F)CCO [AZD4320] (first compound max 1 µM, 7x7, partner max 1 µM)	0.0463	0.037	0.0355	0.0015	0.0276	0.0292	0.0577	0.0252	0.028	-0.0296	0.0754	-0.0031	0.0545	-0.0021	0.0058	-0.0004	-0.0093	-0.005	0.0168	0.0051	0.513	0.568	0.308	0.48	1	0.483	0.454	0.936	0.938	0.521	1	0.699	0.393	0.509	0.269	0.548	0.452	0.392	0.628	0.417
